Reference: patent publication US20240368096A1 (Enanta Pharmaceuticals, Inc., priority 2022, published 2024)

What follows are compounds tested on HBV (assay: HBV infection in HepG2-NTCP cells (HBeAg AlphaLISA in supernatants)). Settings: Hepatitis B virus, 192 h; HBV infection of HepG2-NTCP cells; HBeAg in supernatants at day 8 post infection; read-out: Cellular EC50.
Format: cell-based
Outline: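 HepG2-NTCP A3 cells were pre-incubated 2 h with 3-fold serially diluted compounds, then infected with HBV at 2000 GE/cell with 4% PEG (0.5% DMSO final). After washing on day 1, cells stayed in 2.5% DMSO medium; supernatant HBeAg measured by AlphaLISA on day 8, EC50 versus DMSO controls.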

Row | SMILES | EC50 [nM]
1 | CN1[C@H](C2CCCCC2)CN(c2ccccc2)c2cc(Cl)c(-c3ccc(C(=O)O)c(C(=O)O)c3)cc2S1(=O)=O [Example 213, (R)-4-(7-chloro-3-cyclohexyl-2-methyl-1,1-dioxido-5-phenyl-2,3,4,5-tetrahydrobenzo[f][1,2,5]thiadiazepin-8-yl)phthalic acid] | 100 to 1000
2 | CC(C)C[C@@H]1CN(c2ccccc2)c2cc(Cl)c(-c3ccc(OCC(F)(F)F)c(C(=O)O)c3)cc2S(=O)(=O)N1C [Example 214, (R)-5-(7-chloro-3-isobutyl-2-methyl-1,1-dioxido-5-phenyl-2,3,4,5-tetrahydrobenzo[f] [1,2,5]thiadiazepin-8-yl)-2-(2,2,2-trifluoroethoxy)benzoic acid] | 100 to 1000
3 | CC(C)C[C@@H]1CN(c2ccccc2)c2cc(Cl)c(-c3ccc(-c4ccccc4)c(C(=O)O)c3)cc2S(=O)(=O)N1C [Example 215, (R)-4-(7-chloro-3-isobutyl-2-methyl-1,1-dioxido-5-phenyl-2,3,4,5-tetrahydrobenzo[f][1,2,5]thiadiazepin-8-yl)-[1,1′-biphenyl]-2-carboxylic acid] | 100 to 1000
4 | CC(C)C[C@@H]1CN(c2ccccc2)c2cc(Cl)c(-c3ccc(-c4ccoc4)c(C(=O)O)c3)cc2S(=O)(=O)N1C [Example 216] | 100 to 1000
5 | CC(C)C[C@@H]1CN(c2ccccc2)c2cc(Cl)c(-c3ccc(C4=CCC(C)(C)CC4)c(C(=O)O)c3)cc2S(=O)(=O)N1C [Example 217] | > 1000
6 | CC(C)C[C@@H]1CN(c2ccccc2)c2cc(C3=CCC(C)(C)CC3)c(-c3ccc(C4=CCC(C)(C)CC4)c(C(=O)O)c3)cc2S(=O)(=O)N1C [Example 218] | 100 to 1000
7 | CC(C)C[C@@H]1CN(c2ccccc2)c2cc(Cl)c(-c3ccc(N4CCCCC4)c(C(=O)O)c3)cc2S(=O)(=O)N1C [Example 219, (R)-5-(7-chloro-3-isobutyl-2-methyl-1,1-dioxido-5-phenyl-2,3,4,5-tetrahydrobenzo[f][1,2,5]thiadiazepin-8-yl)-2-(piperidin-1-yl)benzoic acid] | > 1000
8 | CC(=O)NS(=O)(=O)c1cccc(-c2cc3c(cc2Cl)N(c2ccccc2)C[C@@H](CC(C)C)N(C)S3(=O)=O)c1 [Example 220, (R)—N-((3-(7-chloro-3-isobutyl-2-methyl-1,1-dioxido-5-phenyl-2,3,4,5-tetrahydrobenzo[f][1,2,5]thiadiazepin-8-yl)phenyl)sulfonyl)acetamide] | 100 to 1000
9 | CC(C)C[C@@H]1CN(c2ccccc2)c2cc(Cl)c(-c3cccc(S(=O)(=O)NC(=O)c4ccccc4)c3)cc2S(=O)(=O)N1C [Example 221] | 100 to 1000
10 | CC(=O)NS(=O)(=O)c1cccc(-c2cc3c(cc2Cl)N(c2ccccc2)C[C@@H](C2CCCCC2)N(C)S3(=O)=O)c1 [Example 222] | 100 to 1000
11 | CC(=O)NS(=O)(=O)c1cc(-c2cc3c(cc2Cl)N(c2ccccc2)C[C@@H](C2CCCCC2)N(C)S3(=O)=O)ccc1F [Example 223] | < 100
12 | CC(=O)NS(=O)(=O)c1cc(-c2cc3c(cc2Cl)N(c2ccccc2)C[C@@H](C2CCCCC2)N(C)S3(=O)=O)ccc1Cl [Example 224] | < 100
13 | CC(=O)NS(=O)(=O)c1cccc(-c2cc3c(cc2Cl)N(c2ccccc2)C[C@@H](C2CCC2)N(C)S3(=O)=O)c1 [Example 228] | 100 to 1000
14 | CC(=O)Nc1ccc(-c2cc3c(cc2Cl)N(c2ccccc2)C[C@@H](C2CCCCC2)N(C)S3(=O)=O)cc1C(=O)O [Example 229] | < 100
15 | CC(C)C[C@@H]1CN(c2ccccc2)c2cc(Cl)c(-c3cccc(S(=O)(=O)O)c3)cc2S(=O)(=O)N1C [Example 230] | 100 to 1000
16 | CN1[C@H](C2CCCCC2)CN(c2ccccc2)c2cc(Cl)c(-c3cccc(P(=O)(O)O)c3)cc2S1(=O)=O [Example 232, (R)-(3-(7-chloro-3-cyclohexyl-2-methyl-1,1-dioxido-5-phenyl-2,3,4,5-tetrahydrobenzo[f][1,2,5]thiadiazepin-8-yl)phenyl)phosphonic acid] | 100 to 1000
17 | CC(C)C[C@@H]1CN(c2ccccc2)c2cc(Cl)c(-c3cccc(P(=O)(O)O)c3)cc2S(=O)(=O)N1C [Example 233] | 100 to 1000
18 | CN1[C@H](C2CCC2)CN(c2ccccc2)c2cc(Cl)c(-c3cccc(P(=O)(O)O)c3)cc2S1(=O)=O [Example 234] | 100 to 1000
19 | CN1[C@H](C2CCCCC2)CN(c2ccccc2)c2cc(Cl)c(-c3ccc(NC(=O)OCc4ccccc4)c(C(=O)O)c3)cc2S1(=O)=O [Example 236] | < 100
20 | CN1[C@H](C2CCCCC2)CN(c2ccccc2)c2cc(Cl)c(-c3ccc(NC(=O)Nc4ccccc4)c(C(=O)O)c3)cc2S1(=O)=O [Example 237, (R)-5-(7-chloro-3-cyclohexyl-2-methyl-1,1-dioxido-5-phenyl-2,3,4,5-tetrahydrobenzo[f][1,2,5]thiadiazepin-8-yl)-2-(3-phenylureido)benzoic acid] | < 100
21 | CN1[C@H](C2CCCCC2)CN(c2ccccc2)c2cc(Cl)c(-c3cc(NC(=O)OC(C)(C)C)c(C(=O)O)s3)cc2S1(=O)=O [Example 238, (R)-3-((tert-butoxycarbonyl)amino)-5-(7-chloro-3-cyclohexyl-2-methyl-1,1-dioxido-5-phenyl-2,3,4,5-tetrahydrobenzo[f][1,2,5]thiadiazepin-8-yl)thiophene-2-carboxylic acid] | 100 to 1000
22 | CCCOC(=O)Nc1cc(-c2cc3c(cc2Cl)N(c2ccccc2)C[C@@H](C2CCCCC2)N(C)S3(=O)=O)sc1C(=O)O [Example 243] | < 100
23 | CN1[C@H](C2CCCCC2)CN(c2ccccc2)c2cc(Cl)c(-c3cc(NC(=O)OCC(C)(F)F)c(C(=O)O)s3)cc2S1(=O)=O [Example 244] | < 100

Row | SMILES | EC50 [nM]
24 | CN1[C@H](C2CCCCC2)CN(c2ccccc2)c2cc(Cl)c(-c3cc(NC(=O)OCCC(F)(F)F)c(C(=O)O)s3)cc2S1(=O)=O [Example 245] | 100 to 1000
25 | CCCCCOC(=O)Nc1cc(-c2cc3c(cc2Cl)N(c2ccccc2)C[C@@H](C2CCCCC2)N(C)S3(=O)=O)sc1C(=O)O [Example 247] | < 100
26 | CC(C)OC(=O)Nc1cc(-c2cc3c(cc2Cl)N(c2ccccc2)C[C@@H](C2CCCCC2)N(C)S3(=O)=O)sc1C(=O)O [Example 248] | < 100
27 | CN1[C@H](C2CCCCC2)CN(c2ccccc2)c2cc(Cl)c(-c3cc(NC(=O)OC4CC4)c(C(=O)O)s3)cc2S1(=O)=O [Example 249] | < 100
28 | CN1[C@H](C2CCCCC2)CN(c2ccccc2)c2cc(Cl)c(-c3cc(NC(=O)OC4CCC4)c(C(=O)O)s3)cc2S1(=O)=O [Example 250] | < 100
29 | CN1[C@H](C2CCCCC2)CN(c2ccccc2)c2cc(Cl)c(-c3cc(NC(=O)OC4CCCC4)c(C(=O)O)s3)cc2S1(=O)=O [Example 251] | < 100
30 | CN1[C@H](C2CCCCC2)CN(c2ccccc2)c2cc(Cl)c(-c3cc(NC(=O)OCC4CC4)c(C(=O)O)s3)cc2S1(=O)=O [Example 252] | < 100
31 | CN1[C@H](C2CCCCC2)CN(c2ccccc2)c2cc(Cl)c(-c3cc(NC(=O)OCC4CC(F)(F)C4)c(C(=O)O)s3)cc2S1(=O)=O [Example 253] | < 100
32 | CN1[C@H](C2CCCCC2)CN(c2ccccc2)c2cc(Cl)c(-c3cc(NC(=O)OCC4(C)CC4)c(C(=O)O)s3)cc2S1(=O)=O [Example 254] | < 100
33 | CN1[C@H](C2CCCCC2)CN(c2ccccc2)c2cc(Cl)c(-c3cc(NC(=O)OCC(C)(C)C)c(C(=O)O)s3)cc2S1(=O)=O [Example 255] | < 100
34 | CN1[C@H](C2CCCCC2)CN(c2ccccc2)c2cc(Cl)c(-c3cc(NC(=O)OCC(C)(C)C#N)c(C(=O)O)s3)cc2S1(=O)=O [Example 256] | < 100
35 | CC(C)OCCOC(=O)Nc1cc(-c2cc3c(cc2Cl)N(c2ccccc2)C[C@@H](C2CCCCC2)N(C)S3(=O)=O)sc1C(=O)O [Example 257] | < 100
36 | CO[C@H](C)COC(=O)Nc1cc(-c2cc3c(cc2Cl)N(c2ccccc2)C[C@@H](C2CCCCC2)N(C)S3(=O)=O)sc1C(=O)O [Example 259] | < 100
37 | COCC(C)(C)COC(=O)Nc1cc(-c2cc3c(cc2Cl)N(c2ccccc2)C[C@@H](C2CCCCC2)N(C)S3(=O)=O)sc1C(=O)O [Example 260] | 100 to 1000
38 | COC(C)(C)CCOC(=O)Nc1cc(-c2cc3c(cc2Cl)N(c2ccccc2)C[C@@H](C2CCCCC2)N(C)S3(=O)=O)sc1C(=O)O [Example 261] | 100 to 1000
39 | CCOC(=O)Nc1cc(-c2cc3c(cc2F)N(c2ccccc2)C[C@@H](C2CCCCC2)N(C)S3(=O)=O)sc1C(=O)O [Example 265, (R)-5-(3-cyclohexyl-7-fluoro-2-methyl-1,1-dioxido-5-phenyl-2,3,4,5-tetrahydrobenzo[f][1,2,5]thiadiazepin-8-yl)-3-((ethoxycarbonyl)amino)thiophene-2-carboxylic acid] | < 100
40 | CC(C)COC(=O)Nc1cc(-c2cc3c(cc2F)N(c2ccccc2)C[C@@H](C2CCCCC2)N(C)S3(=O)=O)sc1C(=O)O [Example 266] | < 100
41 | CC(C)CS(=O)(=O)Nc1ccc(-c2cc3c(cc2Cl)N(c2ccccc2)C[C@@H](C2CCCCC2)N(C)S3(=O)=O)cc1C(=O)O [Example 267, (R)-5-(7-chloro-3-cyclohexyl-2-methyl-1,1-dioxido-5-phenyl-2,3,4,5-tetrahydrobenzo[f][1,2,5]thiadiazepin-8-yl)-2-((2-methylpropyl)sulfonamido)benzoic acid] | < 100
42 | CN1[C@H](C2CCCCC2)CN(c2ccccc2)c2cc(Cl)c(-c3ccc(NS(=O)(=O)CCC(F)(F)F)c(C(=O)O)c3)cc2S1(=O)=O [Example 268] | < 100
43 | CN1[C@H](C2CCCCC2)CN(c2ccccc2)c2cc(Cl)c(-c3ccc(NS(=O)(=O)Cc4ccccc4)c(C(=O)O)c3)cc2S1(=O)=O [Example 269] | < 100
44 | CN1[C@H](C2CCCCC2)CN(c2ccccc2)c2cc(Cl)c(-c3ccc(NS(=O)(=O)CCc4ccccc4)c(C(=O)O)c3)cc2S1(=O)=O [Example 270] | < 100
45 | CN1[C@H](C2CCCCC2)CN(c2ccccc2)c2cc(Cl)c(-c3ccc(NS(=O)(=O)CC4CCC4)c(C(=O)O)c3)cc2S1(=O)=O [Example 272] | < 100
